Source: patent US20070264340A1, “Aromachemicals” (Flexitral, Inc., priority 2006, published 2007)

Experiment: stability to acid
Format: physicochemical

With CC(C)=CCCC1(C)CC1C=O (racemic) [2-methyl-2-(4-methylpent-3-en-1-yl)cyclopropanecarbaldehyde] the stability to acid was “stable to acid”.
